Measurements as given in patent US20230089530A1, “QUINUCLIDINONE ANALOGUES AS ANTICANCER AGENTS” (Newave Pharmaceutical Inc., priority 2020, published 2023).

Columns and labels:
[1] = system: RS4;11(G101V) cancer cells; experiment: In vitro anti-proliferation assay in RS4;11 cell line with G101V mutation (ATPlite luminescence); assay type: cell-based; settings: about 72 hours incubation, medium supplemented with 5% FBS or 10% normal human serum
Description: Biological Example 1: In Vitro Anti-Proliferation Assay in BCL-2-Dependent Acute Lymphoblastic Leukemia (ALL) Cell Line RS4;11 with G101V Mutation
(§1) The RS4;11 cell line used herein was engineered to stably overexpress the G101V mutant form of human Bcl-2. The cell antiproliferation was assayed by PerkinElmer ATPlite™ Luminescence Assay System. Briefly, the RS4;11(G101V) cancer cells were plated at a density of about 1×10^4 cells per well in Costar 96-well plates, and were incubated with different concentrations of compounds for about 72 hours in medium supplemented with 5% FBS or 10% normal human serum (NHS). One lyophilized substrate solution vial was then reconstituted by adding 5 mL of substrate buffer solution, and was agitated gently until the solution was homogeneous. About 50 μL of mammalian cell lysis solution was added to 100 μL of cell suspension per well of a microplate, and the plate was shaken for about five minutes in an orbital shaker at ˜700 rpm. This procedure was used to lyse the cells and to stabilize the ATP. Next, 50 μL substrate solution was added to the wells and microplate was shaken for five minutes in an orbital shaker at ˜700 rpm. Finally, the luminescence was measured by a PerkinElmer TopCount® Microplate Scintillation Counter. Such assays, carried out with a range of doses of test compounds, allowed the determination of the cellular anti-antiproliferative IC50 of the compounds of the present invention. The following table lists the IC50 values of certain compounds of the invention.

RS4;11-G101V cell line = experiment: Another in vitro anti-proliferation assay in RS4;11-G101V cell line; assay type: cell-based, human
Description: as §1
The following table lists the IC50 values of another in vitro anti-proliferation assay in RS4;11-G101V cell line.

Mice PK study = assay type: in vivo; settings: CD-1 mouse
Description: The pharmacokinetics of compounds were evaluated in CD-1 mouse via Intravenous and Oral Administration. The IV dose was administered as a slow bolus in the Jugular vein, and oral doses were administered by gavage. The formulation for IV dosing was 5% DMSO in 20% HPBCD in water, and the PO formulation was 2.5% DMSO, 10% EtOH, 20% Cremphor EL, 67.5% D5W. The PK time point for the IV arm was 5, 15, 30 min, 1, 2, 4, 6, 8, 12, 24 hours post dose, and for PO arm was 15, 30 min, 1, 2, 4, 6, 8, 12, 24 hours post dose. Approximately 0.03 mL blood was collected at each time point. Blood of each sample was transferred into plastic micro centrifuge tubes containing EDTA-K2 and collect plasma within 15 min by centrifugation at 4000 g for 5 minutes in a 4° C. centrifuge. Plasma samples were stored in polypropylene tubes. The samples were stored in a freezer at −75±15° C. prior to analysis. Concentrations of compounds in the plasma samples were analyzed using a LC-MS/MS method. WinNonlin (Phoenix™, version 6.1) or other similar software was used for pharmacokinetic calculations. The following pharmacokinetic parameters were calculated, whenever possible from the plasma concentration versus time data: IV administration: C0, CL, Vd, T1/2, AUCinf, AUClast, MRT, Number of Points for Regression; PO administration: Cmax, Tmax, T1/2, AUCinf, AUClast, F %, Number of Points for Regression. The pharmacokinetic data was described using descriptive statistics such as mean, standard deviation.

Row | SMILES | IC50 ([1]; Homo sapiens, RS4-11, 72 h) | IC50 [1] | also measured
1 | COC[C@@]1(CO)C(=O)C2(C)CCN1CC2 (single isomer, unassigned) [Example 3 (isomer 1)] | < 5 µM |  | 
2 | COC[C@@]1(CO)C(=O)C2(C)CCN1CC2 (single isomer, unassigned) [Example 3 (isomer 2)] |  | > 5 µM | 
3 | CCC12CCN(CC1)[C@@](CO)(COC)C2=O (single isomer, unassigned) [Example 6(isomer 1)] | < 5 µM |  | 
4 | CCC12CCN(CC1)[C@](CO)(COC)C2=O (single isomer, unassigned) [Example 6(isomer 2)] | < 5 µM |  | 
5 | CCOC[C@@]1(CO)C(=O)C2(C)CCN1CC2 (single isomer, unassigned) [Example 7(isomer 1)] | < 5 µM |  | 
6 | CCOC[C@]1(CO)C(=O)C2(C)CCN1CC2 (single isomer, unassigned) [Example 7(isomer 2)] | < 5 µM |  | 
7 | CC(C)OCC1(CO)C(=O)C2(C)CCN1CC2 (single isomer, unassigned) [Example 8(isomer 1), 2-(hydroxymethyl)-2-(isopropoxymethyl)-4-methyl-1-azabicyclo[2.2.2]octan-3-one] | < 5 µM |  | 
8 | CC(C)OCC1(CO)C(=O)C2(C)CCN1CC2 (single isomer, unassigned) [Example 8(isomer 2), 2-(hydroxymethyl)-2-(isopropoxymethyl)-4-methyl-1-azabicyclo[2.2.2]octan-3-one] |  | < 5 µM | 
9 | COCC1(CO)C(=O)C2CCN1CC2 (stereo not shown) [APR-246, reference compound] |  | < 5 µM | IC50 (RS4;11-G101V cell line): 1.76 µM
10 | COCC1(CO)C(=O)C2(C)CCN1CC2 (stereo not shown) [Example 2, 2-(hydroxymethyl)-2-(methoxymethyl)-4-methyl-1-azabicyclo[2.2.2]octan-3-one] | < 5 µM |  | 
11 | CC12CCN(CC1)C(CO)(CO)C2=O [Example 4, 2,2-bis(hydroxymethyl)-4-methyl-1-azabicyclo[2.2.2]octan-3-one] | > 5 µM |  | 
12 | COCC1(CO)C(=O)C2(C(C)C)CCN1CC2 (stereo not shown) [Example 5, 2-(hydroxymethyl)-4-isopropyl-2-(methoxymethyl)-1-azabicyclo[2.2.2]octan-3-one] | < 5 µM |  | 
13 | COCC1(CO)C(=O)C2(F)CCN1CC2 (stereo not shown) [Example 9, 4-fluoro-2-(hydroxymethyl)-2-(methoxymethyl)-1-azabicyclo[2.2.2]octan-3-one] | > 5 µM |  | 
14 | COCC1(CO)C(=O)C2(C(F)(F)F)CCN1CC2 (stereo not shown) [Example 10, 2-(hydroxymethyl)-2-(methoxymethyl)-4-(trifluoromethyl)-1-azabicyclo[2.2.2]octan-3-one] | > 5 µM |  | 
15 | COC[C@]1(CO)C(=O)[C@H]2CC[N@]1[C@H](C)C2 [Example 15, (1R,2R,4S,6R)-2-(hydroxymethyl)-2-(methoxymethyl)-6-methylquinuclidin-3-one] |  | < 5 µM | IC50 (RS4;11-G101V cell line): 0.73 µM; potency compared with reference compound APR-246 (RS4;11-G101V cell line): more potent than the reference compound APR-246; bioavailability (in words) (Mice PK study): excellent bioavailability; Bioavailabilty (Mice PK study; Oral, 100 mpk): 79%; AUClas (Mice PK study; Oral, 100 mpk, plasma): 26,093 h*ng/mL
16 | COC[C@@]1(CO)C(=O)[C@@H]2CC[N@@]1[C@@H](C)C2 [Example 16, (1S,2S,4R,6S)-2-(hydroxymethyl)-2-(methoxymethyl)-6-methylquinuclidin-3-one] |  | < 5 µM | 
